This is an account of results in patent publication US20110301236A1, “HeLa-C3 Apoptosis Inducer from Garcinia paucinervis” (priority 2010, published 2011).

What is called IC50 is the point on the concentration scale where inhibition reaches its midpoint.

Common to all, as to assay type: cell-based
Assay [1] has as its system HeLa-C3 cells. The experiment in a line: Apoptosis-inducing effect in HeLa-C3 cells (caspase-3 FRET biosensor, YFP/CFP emission ratio). As to conditions: for Apoptotic effect at 10 μM / Apoptotic effect at 25 μM / Apoptotic effect at 50 μM / Apoptotic effect at 100 μM: 72 h, HeLa-C3 cells, YFP/CFP emission ratio. Here is the method:
The bioassay method was described in our previous paper with some modifications. All the testing samples were dissolved in DMSO to make stock solutions. The concentration of each stock was at least 1000 times higher than the working concentration. HeLa-C3 cells, which allows detection of apoptotic cell death involving caspase activation, were cultured in minimum essential medium (MEM) containing 10% fetal bovine serum, 100 U/mL penicillin, […] streptomycin, in a 5% CO2 humidity incubator at 37° C. The sample well for apoptotic activity testing was prepared by seeding a well on a 96-well plate with 7500 HeLa-C3 cells suspended in 100 μL culture medium. After 12-16 h incubation, the old medium was removed and 100 μL freshly prepared culture medium containing the testing sample at a certain working concentration was added to both the sample well and the corresponding background well. Culture medium containing 0.1% DMSO was the negative control while 500 nM paclitaxel was the positive control. After that, the plate was read repeatedly by a Perkin-Elmer Victor reader with excitation wavelength at 440±10 nm and emission wavelength at 486±8 nm for CFP (cyan fluorescent protein) and 535±8 nm for YFP (yellow fluorescent protein) at indicated time points. The data acquisition duration was up to 72 h. The YFP/CFP emission ratio was then calculated. The background fluorescence was measured from the wells containing only medium. After subtracting the background fluorescence from the recorded signal, net YFP and CFP readings were obtained. In this paper, Y/C emission ratio is used to represent the effect of FRET, which is equal to the net YFP reading divided by the net CFP reading from the same well. If YFP/CFP emission ratio was reduced below 3, the testing sample was considered as a good apoptotic inducer at that concentration. All samples were tested in triplicate. The whole experiment was repeated for three times.
The biological activity of these new compounds was evaluated for apoptosis inducing effects using genetically engineered HeLa-C3 cells that can produce a fluorescent biosensor capable of detecting caspase-3 activation. These cells emit a green light under normal growth conditions and change to a blue light when caspase-3 is activated during apoptosis to cleave the sensor protein inside the cells. This color change allows one to use a fluorescent plate reader to directly detect the activation level of caspase-3 in HeLa-C3 cells during the course of the compound treatment in a noninvasive way. Based on our previous test results, the emission ratio of YFP (yellow fluorescent protein)/CFP (cyanfluorescent proteins) is usually between 6 and 8 in normal cells, and this ratio will decrease to a value below 3 if a compound can activate caspase-3 and kill cancer cells. Therefore, any compound that can reduce the YFP/CFP emission ratio to a value below 3 is considered positive in activating apoptosis.

The test system of the next assay is HeLa cells. As to the kind of experiment: MTT assay, cell growth inhibition on HeLa cells. As to conditions: 72 h. Here is the method: The measurement of the IC50 was conducted on the isolated compounds using MTT assay. MIT powder was dissolved in PBS at a concentration of 5 mg/mL. For MTT assay, 10 μL of MTT solution was added into each well of a 96-well plate. After 2 h incubation at 37° C., 100 μL 10% SDS solution with 0.01 M HCl was added to dissolve the purple crystals. After 24 h incubation, the optical density (OD) readings at 595 nm were measured using a plate reader. Firstly, 2,500 HeLa cells suspended in 100 μL MEM medium were seeded respectively in a 96-well plate. After 24 h incubation, fresh medium contains various concentrations of each compound were added into the 96-well plate and changed the old medium. The concentrations applied except compound 1 which was from 200 μM to 3.125 μM were ranged from 100 μM to 1.5625 μM, which was achieved by doing two-fold dilutions for 6 times. The OD values of the control group at 0 h and 72 h together with the compound treated groups at 72 h from the MTT assay were measured using a plate reader. IC50 is the concentration of a compound inhibiting 50% of the cell growth.
In general terms: Tetrazolium dyes change colour on reduction, which living cells bring about.

Assay [2] has as its system HeLa-C3 cells. As to the kind of experiment: Cell morphology changes of HeLa-C3 cells during compound treatment (FIG. 2). As to the method:
Refereeing to FIG. 2, Cell morphology changes during the course of compound treatment. HeLa-C3 cells were treated with compounds of 2 at 25 μM, an anticancer drug, pacilitaxel at 500 nM (serving as a positive control), and a control without any drug for 24, 48, and 72 h. Various cell morphologies were recorded at the indicated time points.

Regarding `COc1c(O)c(CC=C(C)C)cc2c1Oc1cc(O)c(CC=C(C)C)c(O)c1C(=O)O2` [Compound 1, Paucinervin A], in the assay with HeLa-C3 cells [1], the “Apoptotic effect at 10 μM” value is listed as “− (“−” means the YFP/CFP emission ratio of compound treated HeLa-C3 cells was above 3 at 72 h)”, the “Apoptotic effect at 25 μM” value was “− (“−” means the YFP/CFP emission ratio of compound treated HeLa-C3 cells was above 3 at 72 h)”, the “Apoptotic effect at 50 μM” value is recorded as “− (“−” means the YFP/CFP emission ratio of compound treated HeLa-C3 cells was above 3 at 72 h)” and the “Apoptotic effect at 100 μM” value was “+ (“+” means the YFP/CFP emission ratio of compound treated HeLa-C3 cells was below 3 at 72 h)”. The same molecule yielded a 50% inhibitory concentration (IC50) in the assay on HeLa cells of 95.6 ± 5.5 µM.

Turning to `COC(=O)c1c(O)cc(O)cc1Oc1c(O)c(OC)cc(CC=C(C)C)c1OC` [Compound 2, Paucinervin B], in the assay on HeLa-C3 cells [1], the “Apoptotic effect at 10 μM” value is “− (“−” means the YFP/CFP emission ratio of compound treated HeLa-C3 cells was above 3 at 72 h)”, the “Apoptotic effect at 25 μM” value is recorded as “+ (“+” means the YFP/CFP emission ratio of compound treated HeLa-C3 cells was below 3 at 72 h)”, the “Apoptotic effect at 50 μM” value is recorded as “+ (“+” means the YFP/CFP emission ratio of compound treated HeLa-C3 cells was below 3 at 72 h)” and the “Apoptotic effect at 100 μM” value was “+ (“+” means the YFP/CFP emission ratio of compound treated HeLa-C3 cells was below 3 at 72 h)”. Besides, the “caspase-3 activation in HeLa-C3 cells” value in the assay with HeLa-C3 cells [1] (within 72 h at 25 μM) is reported as “could activate caspase-3”. In addition, the midpoint of inhibition with HeLa cells, the IC50, lay at 9.5 ± 0.2 µM. The 50% inhibitory concentration (IC50) in the assay on HeLa cells (Homo sapiens, HeLa) is < 10 µM. Further, the Cell morphology result in the assay on HeLa-C3 cells [2] (25 μM, 24, 48 and 72 h) was “shrinkage and detached morphology”.

For the molecule `CC(=O)O[C@H]1C(=O)[C@@]2(C)[C@H]([C@H](OC(=O)c3ccccc3)[C@]3(O)C[C@H](OC(=O)[C@H](O)[C@@H](NC(=O)c4ccccc4)c4ccccc4)C(C)=C1C3(C)C)[C@]1(OC(C)=O)CO[C@@H]1C[C@@H]2O` [paclitaxel, reference compound], in the assay with HeLa-C3 cells [2] (500 nM (positive control), 24, 48 and 72 h), the Cell morphology entry was “shrinkage and detached morphology”.
